Experimental data reported in patent US8669232B2, “Flavonol compounds, a bioactive extract/fraction from Ulmus wallichiana and its compounds for prevention for treatment of osteo-health related disorders” (Council of Scientific & Industrial Research, priority 2008, dated 2014).

Assays:
[1] = test system: calvarial osteoblasts; experiment: Alkaline phosphatase activity assay in calvarial osteoblasts; format: cell-based, neonatal Sprague-Dawley rats
Procedure: (§1) Neonatal rat calvarial cell cultures are prepared as described previously (Chattopadhyay et al., Endocrinology 145:3451-62, 2004) using slight modification. Briefly, for calvarial osteoblast cultures, frontal and parietal bones from neonatal Sprague-Dawley rats (1-3 day old) were digested in 0.1% collagenase/0.1% dispase in α-MEM to obtain 5 sequential digests. The second through fifth digests are combined and grown to confluence at 37° C. and 5% CO2 in air in α-MEM, supplemented with 10% fetal bovine serum (FBS), 2 mM glutamine, 100 U/ml penicillin-streptomycin, non-essential amino acid solution and sodium pyruvate.
For alkaline phosphatase (ALP) assay, osteoblasts were plated in 96-well (2000 cells/well) plates in regular growth medium. Twenty-four hours later, when the cells formed a confluent monolayer, medium was replaced with α-MEM medium supplemented with 10% FBS, 10 mM β-glycerophosphate and 50 μg/ml ascorbic acid. Treatment was given with varying concentration of the test compound K012, K058, K068 and K100 at 1 nM and 100 nM concentration. Forty-eight hours after induction, ALP activity of the osteoblasts was determined as described by Akiyama et al (Exp Cell Res 235:362-369, 1997) with slight modifications. Briefly, cells were washed once with PBS and ALP activity was measured by adding ALP buffer (1 M diethanolamine, 0.5 mM MgCl2, 1 mg/ml PNPP, pH 9.0), incubating in 37° C., and absorbance (405 nm) was measured using a microplate spectrophotometer. Statistical significance was determined by paired two-tailed Student's t-tests.

[2] = test system: 3T3-L1 preadipocytes; experiment: Semi-quantitative RT-PCR of adipogenic genes; format: cell-based, murine; conditions: 10^−7 & 10^−9M, 8 d
Procedure: RT-PCR was performed for assessing the expression of PPAR-γ (peroxisome proliferator-activated receptor) and adiponectin. The house keeping gene GAPDH was used as the internal control in this study. 3T3-L1 preadipocytes were cultured under differentiation condition to form adipocytes in the presence of K068 and K100 at 10^−6, 10^−7 and 10^−9 M concentrations for 8 days. Following the culture, cellular RNA was extracted and RT-PCR performed using a kit (Fermentas) according to manufacturer's instructions.

[3] = test system: 3T3-L1 preadipocyte cells; experiment: In vitro adipogenesis (oil red-O); format: cell-based, murine; conditions: for adipocyte differentiation (oil red-O): 1 μM, 100 nM and 1 nm, 8 days
Procedure: 3T3-L1 preadipocyte cells were cultured to confluency. Two days after the cells reached confluency was considered as day 0. At day 0, cells were treated with the induction media [10% calf serum/DMEM containing 1 μg/ml insulin, 1 μM dexamethasone and 500 μM isobutylmethylxanthine (IBMX). Two days after induction medium treatment (day 2), the cells were treated with insulin [10% calf serum/DMEM containing 1 μg/ml insulin. Full differentiation was usually achieved after 8 days from day 0. To test the effect of the test compound on the differentiation of 3T3-L1 preadipocytes to adipocytes, the test compounds K068 and K100 at 1 μM, 100 nM and 1 nm concentrations were used in different concentrations throughout differentiation (for 8 days starting from day 0). For assessment of adipogenesis the differentiated cells were fixed in 4% paraformaldehyde w/v for 20 min, washed with PBS and stained with 0.34% Oil Red 0 in 60% isopropanol for 15 minutes. Then it was washed with PBS thrice and stain was extracted with 80% isopropanol by keeping it at room temperature for 30 minutes on an orbital shaker. OD of the extracted dye was taken at 520 nm.

[4] = test system: Bone marrow cells (BMCs); experiment: In vitro mineralization from mouse bone marrow; format: cell-based, balb/c mice; conditions: 1 nM and 100 nM, 21 days
Source text: Adult balb/c mice were used in this study. Bone marrow cells (BMCs) were harvested from the femurs and tibias of the animals, as described elsewhere (Maniatopoulos et al. Cell Tissue Res 1988:254:317-30.; Ishaug et al., J Biomed Mater Res 1997; 36:17-28.). Briefly, bones were aseptically excised from the hind limbs of the mice following ether euthanasia. The soft tissue was removed, and the proximal end of the femur and distal end of the tibia were clipped off using sterile scissors, a hole was created in the knee joint end of each bone with an needle, and the marrow was flushed from the shaft with control medium (CM) which consisted of α-MEM supplemented with 10% fetal calf serum, 100 U/ml penicillin, 100 U/ml streptomycin (Sigma, Chemical Co., St. Louis, Mo., USA). The cells were suspended in this medium, and the cell suspensions from all bones were combined in a centrifuge tube. The suspension was spun down at 800 rpm for 5 min. Cells were counted by using a haemocytometer. The supernatant was aspirated, and the pellet was re-suspended in fresh CM and then seeded into 12-well plates. 200000 cells/well were cultured in 12-well plates and in a humidified atmosphere, with 5% CO2, at 37° C. in the same medium supplemented with 10 mM-β-glycerophosphate, 50 μg/ml L-ascorbic acid and 10^−8M dexamethasone with different concentration of the test compound. This medium was replaced every other day (John et al. Trends. Biomater. Artif. Organs 2002:16(1):28-33.; Connolly. Clin Orthop 1995:313: 8-18.; Gebhart and Lane. Acta Orthop Belg 1991:57(2):130-43.; Gurpinar et al. J Biomater Appl 2003; 18(1):25-33; Lan and Wang, Blood Substitutes. Biotechnol 2003; 31(1):59-68.). Treatments K012, K058, K068 and K0100 at 1 nM and 100 nM concentration were given for 21 days and after completion of the treatment samples were rinsed with PBS followed by fixation (4% HCHO for […]). Samples were then rinsed with nanopure water and stained for 10 min with 40 mM AR-S, pH 4.2, at room temperature. Photomicrographs of the stained wells were taken. Subsequently, alizarin red-S stain was extracted using 10% (w/v) CPC in […] sodium phosphate, pH 7.0, for […] at room temperature, and the resulting solutions were read on a Microplate reader with a test wavelength of 540 nm against a reference wavelength of 620 nm.

[5] = test system: calvarial osteoblasts; experiment: In vitro mineralization of calvarial osteoblasts (alizarin red-S, von kossa); format: cell-based, neonatal Sprague-Dawley rats; conditions: for Von kossa staining (mineralized nodules) compared with controls (vehicle): 21 days culture
Procedure: as §1
Ability of cells to produce mineralized matrix is important with regard to development of materials for bone regeneration. Mineralization of extracellular matrix by osteoblasts was determined using alizarin red-S (AR-S) assay combined with cetylpyridinium chloride (CPC) extraction. (Stanford et al, J. Biol. Chem. 270:9420-9428; 1995.) Alizarin red is a dye that binds selectively to nascent calcium salts and is widely used for calcium mineral histochemistry. Cells were seeded onto a six well plate containing 10000 cells/well in culture medium supplemented with 10 mM β-glycerophosphate and 50 μg/ml ascorbic acid with test compounds K012, K058, K068 and K0100 at 1 nM and 100 nM concentration. Treatment was given for 21 days and after completion of the treatment samples were rinsed with PBS followed by fixation (4% HCHO for 20 min). Photomicrographs of the stained wells were taken. Subsequently, alizarin red-S stain was extracted using 10% (w/v) cetylpyridinium chloride (CPC) in […] sodium phosphate, pH 7.0, for 15 min at room temperature, and the resulting solutions were read on a Microplate reader with a test wavelength of 540 nm against a reference wavelength of 620 nm. Mineralization nodules were also seen by Von kossa staining procedure (A. M. Chou et al. Materials Science and Engineering C 20 (2002) 77-83.) After 21 days culture, cells in tissue culture wells were washed with PBS and immersed in 5% (w/v) silver nitrate solution for 45 min. After rinsing with distilled water, they were fixed in 5% (w/v) sodium bicarbonate formalin for 8 min. Finally, they were immersed in 5% (w/v) sodium thiosulphate solution for 5 min and washed thoroughly with water for 15 min and photomicrographs were taken.

[6] = test system: Ishikawa cells; experiment: In vitro estrogenicity / anti-estrogenicity (ALP induction); format: cell-based, human; conditions: 10^−11 to 10^−6 M, 72 h
Procedure: The expression of alkaline phosphatase is induced in Ishikawa cells in response to estrogen or estrogen like substances (Littlefield et al, Endocrinology. 1990 December; 127(6):2757-62.). Ishikawa cells were plated in 96-well flat bottomed microtiter plates at a density of 5000 cells/well and cultured in phenol red free DMEM containing 10% charcoal treated FCS. After 24 h of plating, cells were serum-starved for 12 h. Thereafter, for testing estrogenicity of compounds, the cells were treated with different concentrations (10^−6 to 10^−11 M) of pure compounds K058 and K012. Same concentrations of Raloxifene were also used for comparison. Estrogen concentration of 10^−8 M was used as a positive control. Compound treatments were performed for 72 h at 37° C. in CO2 incubator. Experiments were repeated 4 times. For the anti-estrogenicity studies, the compounds K012 and K058 at 10^−6 to 10^−11 M were added with 10^−8 M estrogen. After 72 h of incubation, the media was removed and the plates were washed twice with PBS and dried by tapping, gently. Freeze fracture of cells was achieved by placing the plates at −70° C. for 15, min followed by bringing to room temperature. The plates were then placed on ice and 50 μl of ice cold diethanolamine solution (5 mM P-nitrophenyl phosphate (PNP) and 0.25 mM MgCl2 in 1 M diethanolamine) was added to each well. The plates were then placed at 37° C. for 30 minutes for color (yellow) development is a function of ALP activity. Absorbance was measured at 405 nm.

SMILES | osteoblast differentiation (summary of in vitro effects) [1] | mRNA levels of PPAR-γ [2] | mRNA levels of adiponectin [2] | anti-adipogenic activity in 3T3 L1 cell line (summary of in vitro effects) [3] | adipocyte differentiation (oil red-O) [3] | mineralization of bone marrow osteoblasts (alizarin red staining) [4] | osteoblast mineralization (summary of in vitro effects) [5] | Von kossa staining (mineralized nodules) compared with controls (vehicle) [5] | ALP levels (estrogenicity) [6]
O=C1CC(c2ccc(O)cc2)Oc2cc(O)c(C3O[C@H](CO)[C@@H](O)[C@H](O)[C@H]3O)c(O)c21 (some centres unmarked) [K068, 6-Glucopyranosyl-4′,5,7-trihydroxyflavanone] | promoted | decreased | decreased | have anti-adipogenic activity | significantly inhibited | stimulated | promoted | increased | –
O=C(c1ccc(OCCN2CCCCC2)cc1)c1c(-c2ccc(O)cc2)sc2cc(O)ccc12 [raloxifene, reference compound] | – | – | – | – | – | – | – | – | no response
O=C1c2c(cc(O)c([C@@H]3OC(CO)[C@@H](O)[C@H](O)C3O)c2O)O[C@@H](c2ccc(O)cc2)[C@@H]1O (stereo partly drawn) [K100, (2S,3S)-(+)-4′,5,7-trihydroxydihydroflavonol-6-C-β-D-glucopyranoside] | promoted | decreased | decreased | have anti-adipogenic activity | significantly inhibited | stimulated | promoted | increased | –
